Like-named read-outs stand apart in the source and are kept apart here.
Experiments:
human α1A‐adrenoceptor [1] = molecular target: T1, human α1A‐adrenoceptor (Homo sapiens, UniProt P35348); assay: ^3H‐prazosin whole‐cell radioligand binding, CHO‐α1A cells; settings: for Affinity selectivity ratio α1A vs α1B: higher affinity for α1A than α1B
T1 construct: expressed in transfected cells; host or cells: CHO-K1
T1 sequence (P35348 1-466): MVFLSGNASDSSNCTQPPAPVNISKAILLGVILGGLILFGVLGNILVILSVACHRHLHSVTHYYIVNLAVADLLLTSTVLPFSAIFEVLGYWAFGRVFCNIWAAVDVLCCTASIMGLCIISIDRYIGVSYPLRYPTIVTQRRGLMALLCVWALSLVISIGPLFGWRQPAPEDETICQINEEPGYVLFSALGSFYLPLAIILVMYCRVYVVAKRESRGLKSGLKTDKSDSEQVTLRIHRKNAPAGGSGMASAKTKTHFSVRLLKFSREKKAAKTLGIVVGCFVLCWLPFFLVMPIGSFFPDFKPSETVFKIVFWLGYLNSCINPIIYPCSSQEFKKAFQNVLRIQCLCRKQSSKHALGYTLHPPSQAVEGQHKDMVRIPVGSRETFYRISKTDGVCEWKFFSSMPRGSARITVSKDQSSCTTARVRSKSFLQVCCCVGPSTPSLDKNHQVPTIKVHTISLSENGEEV

human α1B‐adrenoceptor [2] = molecular target: T2, human α1B‐adrenoceptor (Homo sapiens, UniProt P35368); assay: ^3H‐prazosin whole‐cell radioligand binding, CHO‐α1B cells; settings: CHO‐α1B cells
T2 construct: expressed in transfected cells; host or cells: CHO-K1
T2 sequence (P35368 1-520): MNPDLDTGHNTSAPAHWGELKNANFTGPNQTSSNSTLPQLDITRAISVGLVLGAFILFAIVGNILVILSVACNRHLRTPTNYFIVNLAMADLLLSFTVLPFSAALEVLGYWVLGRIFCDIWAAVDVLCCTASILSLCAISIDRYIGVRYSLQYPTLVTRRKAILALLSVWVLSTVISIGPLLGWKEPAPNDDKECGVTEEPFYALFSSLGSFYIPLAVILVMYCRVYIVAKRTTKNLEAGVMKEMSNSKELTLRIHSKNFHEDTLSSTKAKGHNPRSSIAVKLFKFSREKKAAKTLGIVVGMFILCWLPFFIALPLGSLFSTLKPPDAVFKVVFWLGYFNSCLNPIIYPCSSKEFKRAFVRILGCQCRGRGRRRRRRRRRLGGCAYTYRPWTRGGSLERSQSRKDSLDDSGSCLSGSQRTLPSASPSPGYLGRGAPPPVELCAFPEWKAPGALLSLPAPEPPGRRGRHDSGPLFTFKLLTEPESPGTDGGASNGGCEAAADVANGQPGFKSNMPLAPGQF

[3] = molecular target: T3, human α1D‐adrenoceptor (full length) (Homo sapiens, UniProt P25100); assay: ^3H‐prazosin whole‐cell radioligand binding, CHO‐α1D cells; settings: for 3H‐prazosin binding Log KD: whole‐cell binding (from Table 1), log values given negative
T3 construct: human α1D‐adrenoceptor (full length) were used; expressed in transfected cells; host or cells: CHO-K1
T3 sequence (P25100 1-572): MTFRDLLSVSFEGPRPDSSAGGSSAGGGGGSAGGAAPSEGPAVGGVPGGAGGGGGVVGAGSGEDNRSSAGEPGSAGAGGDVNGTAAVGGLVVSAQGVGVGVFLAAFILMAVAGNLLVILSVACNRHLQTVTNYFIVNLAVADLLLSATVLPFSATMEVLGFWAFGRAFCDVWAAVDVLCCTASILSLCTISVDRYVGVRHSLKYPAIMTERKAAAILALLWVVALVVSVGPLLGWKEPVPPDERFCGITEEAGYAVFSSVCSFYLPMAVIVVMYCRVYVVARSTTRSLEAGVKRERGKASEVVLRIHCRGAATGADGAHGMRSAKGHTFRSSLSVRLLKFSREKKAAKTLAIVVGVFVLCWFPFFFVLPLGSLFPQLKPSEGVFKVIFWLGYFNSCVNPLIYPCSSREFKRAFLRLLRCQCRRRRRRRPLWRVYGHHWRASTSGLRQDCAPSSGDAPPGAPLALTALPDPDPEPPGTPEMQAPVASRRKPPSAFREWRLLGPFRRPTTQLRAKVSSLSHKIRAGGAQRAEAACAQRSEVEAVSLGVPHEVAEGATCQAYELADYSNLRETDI

human α1A‐adrenoceptor [4] = molecular target: T1, human α1A‐adrenoceptor; assay: Intracellular free calcium mobilization, CHO‐α1A cells; assay type: cell-based; settings: CHO‐α1A cells, no EC50 obtained
human α1B‐adrenoceptor [5] = molecular target: T2, human α1B‐adrenoceptor; assay: Intracellular free calcium mobilization, CHO‐α1B cells; assay type: cell-based
[6] = molecular target: T3, human α1D‐adrenoceptor (full length); assay: Intracellular free calcium mobilization, CHO‐α1D cells; assay type: cell-based; settings: CHO‐α1D cells; for Intracellular calcium release Log EC50: log values given negative; for Intracellular calcium release % ionomycin: maximal response as % of 10 µM ionomycin
[7] = molecular target: T3, human α1D‐adrenoceptor (full length); assay: ERK1/2‐phosphorylation (Surefire Alphascreen), CHO‐α1D cells; assay type: cell-based; settings: CHO‐α1D cells; for ERK1/2‐phosphorylation Log EC50: log values given negative; for ERK1/2‐phosphorylation % PDBu: maximal response as % of PDBu
[8] = tested on: parental CHO cell line without any transfected receptors; assay: ERK1/2‐phosphorylation, parent CHO cells without transfected receptors; assay type: cell-based, Chinese hamster; settings: for ERK1/2-phosphorylation % PDBu / ERK1/2-phosphorylation Log EC50: CHO cells without transfected receptors, mean ± s.e.m.; for ERK1/2-phosphorylation % PDBu: maximal response as % of PDBu (10μM) response
human α1B‐adrenoceptor [9] = molecular target: T2, human α1B‐adrenoceptor; assay: ERK1/2‐phosphorylation (Surefire Alphascreen), CHO‐α1B cells; assay type: cell-based

C1=C(c2cnc[nH]2)c2ccsc2CC1 [RWJ52353]
Log KD α1A, ^3H‐prazosin whole cell binding (human α1A‐adrenoceptor [1]; CHO‐α1A cells, given as log KD (negative), mean ± SEM): −5.28 ± 0.08
Affinity selectivity ratio α1A vs α1B (human α1A‐adrenoceptor [1]): >190 fold
Affinity selectivity ratio α1A vs α1D (human α1A‐adrenoceptor [1]; higher affinity for α1A than α1D): 9.6 fold
Log IC50 α1B, ^3H‐prazosin whole cell binding (human α1B‐adrenoceptor [2]; printed as IC50> log value): IC50 >−3
3H‐prazosin binding Log KD ([3]; CHO‐α1D cells): −4.30
Log KD α1D, ^3H‐prazosin whole cell binding ([3]; CHO‐α1D cells, given as log KD (negative), mean ± SEM, 'early plateau' = specific binding not fully inhibited): −4.30 ± 0.12
Affinity selectivity ratio α1B vs α1D ([3]; higher affinity for α1D than α1B): >20 fold
Intracellular calcium release % ionomycin at 10 µM (human α1A‐adrenoceptor [4]; response at 10 μM ligand): 39.4 ± 2.4%
Intracellular calcium release % ionomycin at 10 µM (human α1B‐adrenoceptor [5]; CHO‐α1B cells, response at 10 µM ligand (no EC50 given), % of ionomycin response): 8.1 ± 3.1%
Intracellular calcium release Log EC50 [6]: No response
Intracellular calcium release % ionomycin [6]: No response
ERK1/2‐phosphorylation Log EC50 [7]: No response
ERK1/2‐phosphorylation % PDBu [7]: No response
ERK1/2-phosphorylation % PDBu [8]: No response
ERK1/2-phosphorylation Log EC50 [8]: No response

CN[C@@H](C)[C@H](O)c1ccccc1 [Epdedrine]
Intracellular calcium release % Ionomycin at 100 µM (human α1B‐adrenoceptor [5]): 18.5 ± 2.9%
ERK1/2‐phosphorylation % PDBu (human α1B‐adrenoceptor [9]): 19.1 ± 4.0%
ERK1/2‐phosphorylation Log EC50 (human α1B‐adrenoceptor [9]): −4.67 ± 0.17

CCCC(=O)O[C@@H]1[C@@H](C)[C@@]2(O)[C@@H](C=C(CO)C[C@]3(O)C(=O)C(C)=C[C@@H]23)[C@@H]2C(C)(C)[C@]12OC(=O)CCC [PDBu, Phorbol 12,13‐dibutyrate]
ERK1/2‐phosphorylation response fold over basal [8]: 7.5 ± 0.9 fold over basal

O=C1Cc2cc(CCN3CCN(c4nsc5ccccc45)CC3)c(Cl)cc2N1 [Ziprasidone]
Intracellular calcium release Log EC50 [6]: No response
Intracellular calcium release % ionomycin [6]: No response
ERK1/2‐phosphorylation % PDBu at 10 µM ([7]; response at 10 µM ligand (no EC50 given)): 4.6 ± 2.7%

CCN1CCc2nc(N)oc2CC1 [BHT933]
Log KD α1A (apparent), ^3H‐prazosin whole cell binding (human α1A‐adrenoceptor [1]; CHO‐α1A cells, apparent KD: maximum concentration did not inhibit all specific binding, IC50 extrapolated): −3.60 ± 0.06^apparent
Affinity selectivity ratio α1A vs α1B (human α1A‐adrenoceptor [1]): >4.0 fold
Log KD, ^3H‐prazosin binding (human α1B‐adrenoceptor [2]; whole‐cell binding (from Table 1), given as log KD (negative numbers)): No binding
Log KD α1B, ^3H‐prazosin whole cell binding (human α1B‐adrenoceptor [2]; given as log KD (negative), mean ± SEM): No binding
3H‐prazosin binding Log KD ([3]; CHO‐α1D cells): −3.70
Log KD α1D (apparent), ^3H‐prazosin whole cell binding ([3]; CHO‐α1D cells, apparent KD: maximum concentration did not inhibit all specific binding, IC50 extrapolated): −3.70 ± 0.18^apparent
Affinity selectivity ratio α1A vs α1D ([3]; higher affinity for α1D than α1A): 1.3 fold
Intracellular calcium release % Ionomycin at 100 µM (human α1A‐adrenoceptor [4]; response at 100 μM ligand): 25.5 ± 3.7%
Intracellular calcium release % Ionomycin at 100 µM (human α1B‐adrenoceptor [5]; CHO‐α1B cells, response at 100 µM ligand (no EC50 given), % of ionomycin response): 16.6 ± 2.1%
Intracellular calcium release Log EC50 [6]: No response
Intracellular calcium release % ionomycin [6]: No response
ERK1/2‐phosphorylation Log EC50 [7]: No response
ERK1/2‐phosphorylation % PDBu [7]: No response

O=C1Cc2cc(CCN3CCN(c4nsc5ccccc45)CC3)c(Cl)cc2N1 [ziprasidone]
ERK1/2-phosphorylation % PDBu [8]: No response
ERK1/2-phosphorylation Log EC50 [8]: No response

Source: article PMC8343220, “The selectivity of α‐adrenoceptor agonists for the human α1A, α1B, and α1D‐adrenoceptors” (Pharmacology Research & Perspectives, 2021)
